The text below walks through data of ChEMBL document CHEMBL1201862, “PubChem BioAssay data set” (2004).

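Assay format: 96-well plates, 48-hour exposure. GI50: concentration for 50% inhibition of growth.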 Calls of active or inactive are those of the source. No stated cut-off is given here; in the data, active = GI50 up to about 1.1 µM and inactive = higher. *1 amine or outer side, *2 acyl side, *3 side chain or, on linkers, in order; H or OH if unused. Where a SMILES comes first, the peptide text is derived from it. Bridges are numbered along the chain shown (N, C = ends). Roman numbers before positions name the chains, in order. [ ]: non-standard residue; d: D form. Actinocin(9to1) = Cc1c2oc3c(C)ccc(C(=O)[*:1])c3nc-2c(C(=O)[*:2])c(N)c1=O; NMeV = CN[CH](C(=O)O)C(C)C; Sar = CNCC(=O)O

What all share (experiment): NCI tumour cell line growth inhibition, 48 h
In experiment [1] the test system is LOX IMVI.
In experiment [2] the test system is COLO 205.
In experiment [3] the test system is OVCAR-8.
The subject of experiment [4] is SR.
Experiment [5] concerns SNB-75.
Experiment [6] concerns MDA-MB-231.
Experiment [7] deals with SK-MEL-5.
Experiment [8] has as its system BT-549.
Experiment [9] concerns SK-MEL-28.
In experiment [10] the test system is KM12.
Experiment [11] deals with SK-MEL-2.
Experiment [12] has as its system RPMI-8226.
The subject of experiment [13] is NCI-H23.
For experiment [14], the system named is HT-29.
Experiment [15] relates to SF-268.
In experiment [16] the test system is SF-539.
The test system of experiment [17] is IGROV-1.
For experiment [18], the system named is A498.
The subject of experiment [19] is TK-10.

For `O=c1[nH]nc(Cc2ccc(Cl)cc2)n1/N=C/c1ccc([N+](=O)[O-])o1`, the GI50 in experiment [1] was 1.2 µM (inactive); in experiment [2] it was 1.84 µM (inactive); in experiment [3], 1.99 µM (inactive); in experiment [4] it was 2.17 µM (inactive); in experiment [5], 7.13 µM (inactive); in experiment [6], 3.38 µM (inactive). Also, the GI50 in experiment [7] is 2.61 µM (inactive); in experiment [8] it was 1.87 µM (inactive); in experiment [9], 3.03 µM (inactive); in experiment [10], 2.03 µM (inactive); in experiment [11], 3.38 µM (inactive); in experiment [12], 1.12 µM (active). Besides, the GI50 is 3.34 µM (inactive) in [13]; 2.21 µM (inactive) in experiment [14]; 2.25 µM (inactive) in experiment [15]; 2.21 µM (inactive) in experiment [16]; 2.05 µM (inactive) in [17]; 5.7 µM (inactive) in experiment [18]. The GI50 in experiment [19] is 4.27 µM (inactive).
For the compound `Oc1ccc(Cl)cc1Sc1cc(Cl)ccc1O` [FENTICLOR], the GI50 is 8.55 µM (inactive) in experiment [1]; 20.7 µM (inactive) in experiment [2]; 15 µM (inactive) in experiment [3]; 17.1 µM (inactive) in experiment [4]; 16.2 µM (inactive) in experiment [5]; 15 µM (inactive) in [6]. The GI50 in [7] was 3.83 µM (inactive); in experiment [8], 12.9 µM (inactive); in [9], 11.8 µM (inactive); in experiment [10] it was 17.5 µM (inactive); in experiment [11], 10.5 µM (inactive); in experiment [12], 3.32 µM (inactive). Besides, the GI50 in [13] is 5.04 µM (inactive); in experiment [14] it was 18 µM (inactive); in [15], 10.3 µM (inactive); in experiment [16], 17.7 µM (inactive); in experiment [17], 15.1 µM (inactive); in experiment [18], 11.2 µM (inactive). Further, the GI50 in experiment [19] was 17.1 µM (inactive).
Take `O=C1c2ccccc2-c2c1c1ccccc1c(=O)n2-c1cccnc1`: the GI50 in [1] was 32.1 µM (inactive); in experiment [2], > 68.1 µM (inactive); in [3], 31.8 µM (inactive); in experiment [4], 5.53 µM (inactive); in experiment [5], 49.1 µM (inactive); in experiment [6], > 59.7 µM (inactive). Besides, the GI50 in experiment [7] was 73.5 µM (inactive); in [8], 34.8 µM (inactive); in experiment [9], > 100 µM (inactive); in experiment [10] it was > 100 µM (inactive); in experiment [11], > 100 µM (inactive); in experiment [12], > 39.5 µM (inactive). Moreover, the GI50 in [13] was 37.8 µM (inactive); in experiment [14], > 63.7 µM (inactive); in [15], 29.5 µM (inactive); in [16], 21.3 µM (inactive); in experiment [17] it was 34.2 µM (inactive); in [18], > 10 µM (inactive). Further, the GI50 in experiment [19] is > 62.1 µM (inactive).
On to `O=C1[C@H](O)[C@@H]2C(O)O[C@H]3[C@@H]2N1C[C@H]3[Si](c1ccccc1)(c1ccccc1)c1ccccc1` (stereo not given in full), for which the GI50 in experiment [1] is > 100 µM (inactive); in [2], > 100 µM (inactive); in experiment [3], > 100 µM (inactive); in experiment [4] it was > 100 µM (inactive); in [5] it was 5.94 µM (inactive); in experiment [6], > 100 µM (inactive). Further, the GI50 in experiment [7], in experiment [8], in experiment [9], in [10], in experiment [11] and in experiment [12] was > 100 µM (inactive) in each case. The GI50 in experiment [13], in experiment [14], in experiment [15], in experiment [16], in experiment [17] and in experiment [18] was > 100 µM (inactive) in each case. Besides, the GI50 in experiment [19] was > 100 µM (inactive).
In the case of `Cc1c2oc3c(C)ccc(C(=O)NC4C(=O)NC(C(C)C)C(=O)N5CCCC5C(=O)N(C)CC(=O)N(C)C(C(C)C)C(=O)OC4C)c3nc-2c(C(=O)NC2C(=O)NC(C(C)C)C(=O)N3CCCC3C(=O)N(C)CC(=O)N(C)C(C(C)C)C(=O)OC2C)c(N)c1=O` (stereo not given) (I: TVP[Sar][NMeV] / II: TVP[Sar][NMeV]; ester I:1-I:C, II:1-II:C; linker I:N-II:N via Actinocin(9to1); configuration not given here), the GI50 was < 0.0001 µM (active) in experiment [1]; 0.000161 µM (active) in experiment [2]; 0.000212 µM (active) in experiment [3]; < 0.0001 µM (active) in experiment [4]; < 0.0001 µM (active) in experiment [5]; 0.00494 µM (active) in experiment [6]. Moreover, the GI50 in experiment [7] was 0.000351 µM (active); in experiment [8], 0.0025 µM (active); in [9], 0.000764 µM (active); in experiment [10], < 0.0001 µM (active); in experiment [11], < 0.0001 µM (active); in experiment [12], 0.00104 µM (active). For the same compound, the GI50 was 0.000556 µM (active) in experiment [13]; < 0.0001 µM (active) in [14]; < 0.0001 µM (active) in experiment [15]; < 0.0001 µM (active) in [16]; 0.00011 µM (active) in experiment [17]; 0.00169 µM (active) in experiment [18]. Further, the GI50 in experiment [19] was 0.0101 µM (active).
On to `COc1ccc2nc3cccc([N+](=O)[O-])c3c(NCCC(=O)O)c2c1`, for which the GI50 in [1] is > 10 µM (inactive); in [2], 7.59 µM (inactive); in [3] it was > 10 µM (inactive); in [4] it was > 10 µM (inactive); in [5], > 10 µM (inactive); in experiment [6], > 10 µM (inactive). Besides, the GI50 in experiment [7], in [8], in experiment [9], in experiment [10], in experiment [11] and in experiment [12] was > 10 µM (inactive) each time. Moreover, the GI50 in experiment [13], in experiment [14], in experiment [15], in experiment [16], in [17] and in [18] was > 10 µM (inactive) in each case. Also, the GI50 in experiment [19] was > 10 µM (inactive).
Consider `CC(=O)n1cc(C2CC23N=C(c2ccccc2)OC3=O)c2ccccc21` (stereo not given), for which the GI50 in experiment [1] is 16 µM (inactive); in experiment [2] it was 18.4 µM (inactive); in [3], 16.6 µM (inactive); in [4], 10.6 µM (inactive); in experiment [5], 19 µM (inactive); in [6], 20.8 µM (inactive). In addition, the GI50 in experiment [7] was 17.1 µM (inactive); in [8], 14.2 µM (inactive); in [9] it was 19.7 µM (inactive); in experiment [10], 20.2 µM (inactive); in [11], 21.5 µM (inactive); in experiment [12], 7.87 µM (inactive). Also, the GI50 was 16.5 µM (inactive) in [13]; 17.9 µM (inactive) in experiment [14]; 18.3 µM (inactive) in [15]; 19.5 µM (inactive) in [16]; 16.8 µM (inactive) in experiment [17]; 22.6 µM (inactive) in experiment [18]. Also, the GI50 in experiment [19] is 20 µM (inactive).
Regarding `O=C1c2cccc3cc4ccccc4c(c23)C(=O)N1CCCNCCNCCCN1C(=O)c2cccc3cc4ccccc4c(c23)C1=O`, the GI50 in experiment [1] was < 0.01 µM (active); in experiment [2] it was 0.0316 µM (active); in [3] it was 0.0107 µM (active); in [4], < 0.01 µM (active); in experiment [5], 0.0263 µM (active); in experiment [6], 0.189 µM (active). Moreover, the GI50 is 0.128 µM (active) in [7]; 1.24 µM (inactive) in [8]; 0.239 µM (active) in [9]; 0.106 µM (active) in experiment [10]; 0.338 µM (active) in [11]; < 0.01 µM (active) in [12]. The GI50 in [13] is 0.0509 µM (active); in experiment [14], 0.0104 µM (active); in experiment [15] it was 0.196 µM (active); in experiment [16], 0.142 µM (active); in experiment [17], 0.0139 µM (active); in experiment [18] it was 0.526 µM (active). Moreover, the GI50 in experiment [19] is 1 µM (active).
For `CCC(C(=O)C(=O)OC)P1(=O)OC(C)(C)CN1C(C)(C)C` (stereo not given), the GI50 in [1], in experiment [2], in experiment [3], in [4], in experiment [5] and in [6] was > 100 µM (inactive) each time. For the same compound, the GI50 is > 100 µM (inactive) in experiment [7]; > 100 µM (inactive) in experiment [8]; 11.9 µM (inactive) in experiment [9]; > 100 µM (inactive) in experiment [10]; > 100 µM (inactive) in experiment [11]; > 100 µM (inactive) in experiment [12]. Further, the GI50 in [13] was > 100 µM (inactive); in [14], > 100 µM (inactive); in [15], > 100 µM (inactive); in experiment [16] it was > 100 µM (inactive); in experiment [17] it was > 100 µM (inactive); in [18], 20.5 µM (inactive). The GI50 in experiment [19] was > 100 µM (inactive).
Take `C[C@@H]1CC[C@@]2(C)C(C(=O)O)=CCCC2[C@@]1(C)CC(=O)c1ccoc1` (stereo not given in full): the GI50 in [1], in experiment [2], in [3], in experiment [4], in experiment [5] and in [6] was > 25 µM (inactive) throughout. Further, the GI50 in experiment [7], in [8], in experiment [9], in [10], in experiment [11] and in experiment [12] was > 25 µM (inactive) each time. For the same compound, the GI50 in experiment [13], in experiment [14], in [15], in [16], in [17] and in experiment [18] was > 25 µM (inactive) throughout. Besides, the GI50 in experiment [19] is > 25 µM (inactive).
